Results as given in paper PMC3877016 (PLoS ONE, 2013).

Legend:
BAZ2B = biological target: T1, BAZ2B (Homo sapiens, UniProt Q9UIF8); experiment: Protein thermal denaturation assay; assay type: binding; conditions: 5 µM protein, 100 µM compound
T1 construct: bromodomains contained within six other proteins (CREBBP, p300, BAZ2B, GCN5, PHIP and SMARC2A); His-tag (N)
Experimental: (§1) 5 µM of purified bromodomain protein was incubated with 5X SYPRO® Orange (Molecular Probes) at a final concentration of 20 mM HEPES pH 7.4, 100 mM NaCl in the presence of 100 µM compound or DMSO (0.2%) in a fast 96 well optical plate (Applied Biosytems). Samples were incubated at room temperature for 30 minutes and ramped from 25°C to 95°C in a ViiA7 real-time PCR machine (Applied Biosystems). The resulting fluorescence data was analyzed and melting temperatures calculated using Protein Thermal Shift™ Software v1.0 (Life Technologies).

CREBBP = biological target: T2, CREBBP (Homo sapiens, UniProt Q92793); experiment: Protein thermal denaturation assay; assay type: binding; conditions: 5 µM protein, 100 µM compound
T2 construct: bromodomains contained within six other proteins (CREBBP, p300, BAZ2B, GCN5, PHIP and SMARC2A); His-tag (N)
Experimental: as §1

GCN5 = biological target: T3, GCN5 (Homo sapiens, UniProt Q92830); experiment: Protein thermal denaturation assay; assay type: binding; conditions: 5 µM protein, 100 µM compound
T3 construct: bromodomains contained within six other proteins (CREBBP, p300, BAZ2B, GCN5, PHIP and SMARC2A); His-tag (N)
Experimental: as §1

P300 = biological target: T4, P300 (Homo sapiens, UniProt Q09472); experiment: Protein thermal denaturation assay; assay type: binding; conditions: 5 µM protein, 100 µM compound
T4 construct: bromodomains contained within six other proteins (CREBBP, p300, BAZ2B, GCN5, PHIP and SMARC2A); His-tag (N)
Experimental: as §1

PHIP = biological target: T5, PHIP (Homo sapiens, UniProt Q8WWQ0); experiment: Protein thermal denaturation assay; assay type: binding; conditions: 5 µM protein, 100 µM compound
T5 construct: bromodomains contained within six other proteins (CREBBP, p300, BAZ2B, GCN5, PHIP and SMARC2A); His-tag (N)
Experimental: as §1

SMARCA2A = biological target: T6, SMARCA2A (Homo sapiens, UniProt P51531); experiment: Protein thermal denaturation assay; assay type: binding; conditions: 5 µM protein, 100 µM compound
T6 construct: bromodomains contained within six other proteins (CREBBP, p300, BAZ2B, GCN5, PHIP and SMARC2A); His-tag (N)
Experimental: as §1

[1] = test system: ApoA-I mRNA in Huh7 cells; experiment: Induction of ApoA-I mRNA in Huh7 cells (RT-PCR); assay type: cell-based, human; conditions: for Induction of ApoA-I mRNA: 48 h
Experimental: (§2) Huh7 cells were plated at 23,000/well in a 96 well plate in DMEM +10% FBS before allowing to grow overnight. Cells were treated with compounds for 48 h in 0.1%DMSO with or without 5 µM Actinomycin D. U937 cells were differentiated for 3 days in 60 ng/mL PMA, 32,000 cells/well in 96-well format. Cells were then treated with compound in 0.1%DMSO in RPMI media +10%FBS, and after 1 h, lipopolysaccharide (LPS, Sigma) was added to the cells at 1 µg/mL for 3 hours.
(§3) Cells were harvested by mRNA Catcher PLUS Kit followed by real-time PCR using the RNA UltraSense One-Step qRT-PCR System. ApoA-I, IL-6 and TNFα mRNA levels were measured relative to the endogenous control serpin A1 or cyclophilin in the same sample. Data was acquired using the 7500 Real Time PCR System (Applied Biosystems).

IL-6 mRNA in U937 cells = experiment: Inhibition of IL-6 mRNA in LPS-stimulated U937 cells (RT-PCR); assay type: cell-based, human; conditions: U937 cells differentiated with PMA
Experimental: as §2, §3

BRD2[BD1] [2] = biological target: T7, BRD2[BD1] (Homo sapiens, UniProt P25440); experiment: Protein thermal denaturation assay; assay type: binding
T7 construct: we expressed and purified the bromodomains (BD1, BD2) for the BETs expressed in hepatocytes (BRD2, BRD3, BRD4)
Experimental: as §1

BRD2[BD2] [3] = biological target: T8, BRD2[BD2] (Homo sapiens, UniProt P25440); experiment: Protein thermal denaturation assay; assay type: binding
T8 construct: we expressed and purified the bromodomains (BD1, BD2) for the BETs expressed in hepatocytes (BRD2, BRD3, BRD4)
Experimental: as §1

BRD3[BD1] = biological target: T9, BRD3[BD1] (Homo sapiens, UniProt Q15059); experiment: Protein thermal denaturation assay; assay type: binding; conditions: 5 µM protein, 100 µM compound
T9 construct: we expressed and purified the bromodomains (BD1, BD2) for the BETs expressed in hepatocytes (BRD2, BRD3, BRD4)
Experimental: as §1

BRD3[BD2] = biological target: T10, BRD3[BD2] (Homo sapiens, UniProt Q15059); experiment: Protein thermal denaturation assay; assay type: binding; conditions: 5 µM protein, 100 µM compound
T10 construct: we expressed and purified the bromodomains (BD1, BD2) for the BETs expressed in hepatocytes (BRD2, BRD3, BRD4)
Experimental: as §1

BRD4[BD1] [4] = biological target: T11, BRD4[BD1] (Homo sapiens, UniProt O60885); experiment: Protein thermal denaturation assay; assay type: binding
T11 construct: we expressed and purified the bromodomains (BD1, BD2) for the BETs expressed in hepatocytes (BRD2, BRD3, BRD4)
Experimental: as §1

BRD4[BD2] [5] = biological target: T12, BRD4[BD2] (Homo sapiens, UniProt O60885); experiment: Protein thermal denaturation assay; assay type: binding
T12 construct: we expressed and purified the bromodomains (BD1, BD2) for the BETs expressed in hepatocytes (BRD2, BRD3, BRD4)
Experimental: as §1

[6] = biological target: BRDT tandem bromodomains [BD1 BD2] (Homo sapiens, UniProt Q58F21); experiment: TR-FRET competition assay, tandem bromodomains; assay type: binding
Experimental: (§4) For inhibition assays, serially diluted compound was added to these reactions in a 0.2% final concentration of DMSO. Final buffer concentrations were 30 mM HEPES pH 7.4, 30 mM NaCl, 0.3 mM CHAPS, 20 mM PO4 pH 7.0, 320 mM KF, 0.08% BSA). After 2 h incubation at room temperature, the fluorescence by FRET was measured at 665 and 620 nm by a SynergyH4 plate reader (Biotek). IC50 values were determined from a dose response curve.

BRD2[BD1] [7] = biological target: T7, BRD2[BD1]; experiment: Isothermal titration calorimetry; assay type: binding; conditions: ITC, 25°C
BRD2[BD2] [8] = biological target: T8, BRD2[BD2]; experiment: Isothermal titration calorimetry; assay type: binding; conditions: ITC, 25°C
BRD4[BD1] [9] = biological target: T11, BRD4[BD1]; experiment: Isothermal titration calorimetry; assay type: binding; conditions: ITC, 25°C
BRD4[BD2] [10] = biological target: T12, BRD4[BD2]; experiment: Isothermal titration calorimetry; assay type: binding; conditions: ITC, 25°C
[11] = biological target: BD1 bromodomains of BRDs 2 and 3; experiment: TR-FRET competition assay; assay type: binding, human; conditions: BD1 of BRDs 2 and 3, text summary citing Table 3
Experimental: as §4, with “200 nM N-terminally His-tagged bromodomains or BRD4(BD1BD2) and 25–50 nM biotinylated tetra-acetylated histone H4 peptide (Millipore) were incubated in the presence of Europium Cryptate-labeled streptavidin (Cisbio Cat. #610SAKLB) and XL665-labeled monoclonal anti-His antibody (Cisbio Cat.#61HISXLB) in a white 96 well microtiter plate (Greiner). For” for “For”

[12] = test system: bromodomains of CREBBP, p300, BAZ2B, GCN5, PHIP and SMARC2A; experiment: Protein thermal denaturation assay (text summary); assay type: binding
Experimental: as §1

[13] = test system: BRDs2, 3 and 4 on chromatin in Huh7 cells; experiment: Extraction of soluble BET proteins from chromatin (Western blot); assay type: cell-based, human
Experimental: Soluble proteins were extracted using a buffer containing 0.5% Triton X-100 (10 mM PIPES pH 6.8, 300 mM sucrose, 50 mMNaCl, 3 mM MgCl2, 1 mM EGTA, 2 mM ribonucleoside vanadyl complex) as previously described.

[14] = biological target: T13, PHIP on chromatin in Huh7 cells (Homo sapiens, UniProt Q8WWQ0); experiment: Extraction of soluble proteins from chromatin (Western blot); assay type: cell-based
T13 construct: endogenous in cells; host or cells: Huh7
Experimental: Soluble proteins were extracted using a buffer containing 0.5% Triton X-100 (10 mM PIPES pH 6.8, 300 mM sucrose, 50 mMNaCl, 3 mM MgCl2, 1 mM EGTA, 2 mM ribonucleoside vanadyl complex) as previously described. After loading on a 4–12% NuPAGE gradient gel (Life Technologies), the soluble and chromatin-containing pellet fractions were evaluated by Western blot with the following antibodies and dilutions: BRD2 (Bethyl, A302-583A, 1∶5000); BRD3 (Bethyl A302-368A, 1∶2000); BRD4 (Bethyl A301-985A, 1∶1000); PHIP (Abcam ab86244, 1∶2000), HNF4a (Perseus PPH1415, 1∶1000); NR2F2 (Perseus PPH7147, 1∶1000).

ApoA-I mRNA in HepG2 = conditions: cited from earlier work
[15] = test system: cholesterol efflux capacity; conditions: monkeys; cited from earlier work
ApoA-I and HDL-C levels = test system: ApoA-I and HDL-C levels; design: method as in PMID 21255957; conditions: statin-treated patients with coronary artery disease; cited from earlier work

T8 sequence (P25440 344-453 limits assumed): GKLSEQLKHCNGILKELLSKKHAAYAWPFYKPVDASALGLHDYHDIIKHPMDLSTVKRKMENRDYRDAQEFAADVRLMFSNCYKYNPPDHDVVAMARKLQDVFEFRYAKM
T1 sequence (Q9UIF8 2060-2164 limits assumed): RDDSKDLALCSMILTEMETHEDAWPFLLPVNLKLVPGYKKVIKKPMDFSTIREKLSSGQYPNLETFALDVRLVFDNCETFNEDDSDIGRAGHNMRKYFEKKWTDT
T4 sequence (Q09472 1049-1156 limits assumed): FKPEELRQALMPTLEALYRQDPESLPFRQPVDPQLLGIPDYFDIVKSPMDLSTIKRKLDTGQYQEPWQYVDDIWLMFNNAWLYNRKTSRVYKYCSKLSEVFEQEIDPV
T6 sequence (P51531 1378-1506 limits assumed): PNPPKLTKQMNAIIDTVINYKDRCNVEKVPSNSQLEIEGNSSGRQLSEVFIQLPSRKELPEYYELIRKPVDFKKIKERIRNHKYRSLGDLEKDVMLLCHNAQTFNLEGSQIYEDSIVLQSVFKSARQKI
T2 sequence (Q92793 1085-1192 limits assumed): as the sequence (Q09472 1049-1156 limits assumed) above, with S47N, I73V, Y93F, S98A counted along it
T3 sequence (Q92830 728-832 limits assumed): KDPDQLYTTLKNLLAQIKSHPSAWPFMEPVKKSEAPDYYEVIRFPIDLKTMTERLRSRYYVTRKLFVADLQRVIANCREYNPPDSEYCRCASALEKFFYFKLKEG
T7 sequence (P25440 74-180 limits assumed): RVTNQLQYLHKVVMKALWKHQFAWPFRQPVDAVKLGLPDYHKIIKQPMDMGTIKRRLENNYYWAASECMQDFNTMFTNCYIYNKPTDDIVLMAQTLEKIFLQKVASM
T9 sequence (Q15059 34-140 limits assumed): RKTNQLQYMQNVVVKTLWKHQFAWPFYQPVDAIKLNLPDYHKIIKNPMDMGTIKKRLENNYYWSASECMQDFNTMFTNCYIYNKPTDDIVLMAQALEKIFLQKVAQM
T10 sequence (Q15059 306-415 limits assumed): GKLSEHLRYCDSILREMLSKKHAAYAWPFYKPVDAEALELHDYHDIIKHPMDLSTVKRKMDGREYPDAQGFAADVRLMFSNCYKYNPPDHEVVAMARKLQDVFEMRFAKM

Structure (SMILES): Cc1sc2c(c1C)C(c1ccc(Cl)cc1)=N[C@@H](CC(=O)OC(C)(C)C)c1nnc(C)n1-2 [JQ-1, reference compound]
- Thermal denaturation ΔTm (BAZ2B): −0.83 °C
- Thermal denaturation ΔTm (CREBBP): −1.0 °C
- Thermal denaturation ΔTm (GCN5): −0.7 °C
- Thermal denaturation ΔTm (P300): −1.4 °C
- Thermal denaturation ΔTm (PHIP): −1.4 °C
- Thermal denaturation ΔTm (SMARCA2A): 0.4 °C
- Induction of ApoA-I mRNA [1]: induces ApoA-I mRNA
- Suppression of IL-6 mRNA (IL-6 mRNA in U937 cells): selectively suppresses IL-6 mRNA

Structure (SMILES): COc1cc(OC)c2c(=O)[nH]c(-c3cc(C)c(OCCO)c(C)c3)nc2c1 [RVX-208, 2-(4-(2-hydroxyethoxy)-3,5-dimethylphenyl)-5,7-dimethoxyquinazolin-4(3H)-one]
- ΔTm at 100 µM (BAZ2B): 0 °C
- ΔTm at 100 µM (BRD2[BD1] [2]): 1.9 °C
- ΔTm at 100 µM (BRD2[BD2] [3]): 5.1 °C
- ΔTm at 100 µM (BRD3[BD1]): 2.6 °C
- ΔTm at 100 µM (BRD3[BD2]): 6.8 °C
- ΔTm at 100 µM (BRD4[BD1] [4]): 3.9 °C
- ΔTm at 100 µM (BRD4[BD2] [5]): 7.7 °C
- ΔTm at 100 µM (CREBBP): -0.3 °C
- ΔTm at 100 µM (GCN5): 0 °C
- ΔTm at 100 µM (P300): -0.16 °C
- ΔTm at 100 µM (PHIP): 0.19 °C
- ΔTm at 100 µM (SMARCA2A): 0.4 °C
- IC50 [6]: 1450 nM
- ΔH (BRD2[BD1] [7]): -12.67 kcal/mol
- ΔH (BRD2[BD2] [8]): -4.145 kcal/mol
- ΔS (BRD2[BD2] [8]): +16.7 cal mol^−1 K^−1
- ΔH (BRD4[BD1] [9]): -17.04 kcal/mol
- ΔS (BRD4[BD1] [9]): −34.1 cal mol^−1 K^−1
- ΔH (BRD4[BD2] [10]): -6.376 kcal/mol
- ΔS (BRD4[BD2] [10]): +8.44 cal mol^−1 K^−1
- Kd [11]: 2000 to 3000 nM
- Binding to bromodomains of six other proteins [12]: did not bind
- Induction of ApoA-I in presence of Actinomycin D ([1]; 30 µM RVX-208, with 5 µM Actinomycin D): inhibited by Actinomycin D
- Induction of ApoA-I mRNA [1]: induces ApoA-I mRNA
- Suppression of IL-6 mRNA (IL-6 mRNA in U937 cells): selectively suppresses IL-6 mRNA
- Duration of release of BET proteins from chromatin [13]: more than 48 h
- Release of BRDs2, 3 and 4 from chromatin into soluble fraction [13]: partially released from chromatin
- Time to release of BET proteins from chromatin ([13]; time of treatment): ≤ 2 h
- Release of PHIP from chromatin [14]: stays in the insoluble (pellet, P) fraction
- Induction of ApoA-I mRNA (ApoA-I mRNA in HepG2): induces ApoA-I mRNA
- Systemic capacity to promote cholesterol efflux [15]: enhanced systemic capacity to promote cholesterol efflux
- ApoA-I levels (ApoA-I and HDL-C levels): increased
- HDL-C levels (ApoA-I and HDL-C levels): increased
